Data as given in patent US20080118434A1 (The Board of the Trustees of The Leland Stanford J, priority 2003, published 2008).

Assays:
[1] = system: hypothalamic genes (mRNA levels); experiment: Microarray analysis of gene expression in hypothalamus of rats treated chronically with antidepressants; assay type: in vivo, rat; conditions: rats treated with fluoxetine, bupropion and/or desipramine; i.p. twice daily for four weeks
Excerpt: Membrane microarray analysis was used to compare expression levels of over 8,000 genes in the hypothalamus of rats treated chronically with a specific serotonin reuptake inhibitor (i.e., fluoxetine), a tricyclic antidepressant (i.e., desipramine), and a dopamine reuptake inhibitor (i.e., bupropion).
(§1) Adult Sprague-Dawley male rats (250-300 g) were assigned to one of the following four groups (n=10 per group): 1. Saline injected animals (controls). 2. Bupropion treated animals. 3. Desipramine treated animals, and 4. Fluoxetine treated animals. Bupropion (20 mg/kg/day), Desipramine (10 mg/kg/d), Fluoxetine (10 mg/kg/d) and Saline were injected twice daily intraperitoneal (i.p.) for four weeks. Animals were sacrificed in the AM, the day after the last injection. Brains were obtained by rapid decapitation, and processed for gene array analysis (GAA), RT-PCR and in situ hybridization.
(§2) Four brains from each group were used for GAA, and real time RT-PCR confirmation. The remaining six brains were sectioned for in situ hybridization confirmation of the gene array analysis.
(§3) Array analysis was done using GeneChip® Rat Neurobiology U34 Arrays (Affymetrix). Whole hippocampus were dissected and total RNA samples were extracted using standard methods (Trizol, Invitrogen; Quigen Rneasy Mini Kit). Total RNA from each of the experimental groups were pooled. The column purified total RNA (10 μg) was converted to biotinylated cRNA hybridization probe following the manufacturers protocol. Labeled cRNA (30 ug) was fragmented in fragmentation buffer, and 15 ug were hybridized to the oligonucletide microarray in 300 μl of hybridization solution.
(§4) Samples from each group were run in independently labeled triplicates. The raw intensity data was analyzed with dCHIP software (Li and Wong, 2002).
Genes were identified using a criteria of greater than 20% fold change (90% lower bound confidence limit) and a t-test value yielding a probability of p<0.05.
The microarray analysis results were confirmed by in situ hybridization.

[2] = system: hippocampal genes (mRNA levels); experiment: Microarray analysis (GeneChip Rat Neurobiology U34) of gene expression in hippocampus of rats treated chronically with antidepressants; assay type: in vivo; conditions: for hippocampal genes commonly regulated by desipramine and bupropion (list: NG,NG dimethylarginine dimethylaminohydrolase ... Retina S-antigen): desipramine 10 mg/kg/d; for hippocampal genes commonly regulated by desipramine and bupropion (list: NG,NG dimethylarginine dimethylaminohydrolase ... Retina S-antigen) / hippocampal genes commonly regulated by fluoxetine and bupropion (list: Transferrin ... Carbonic anhydrase 2): bupropion 20 mg/kg/day; for hippocampal genes commonly regulated by desipramine and bupropion (list: NG,NG dimethylarginine dimethylaminohydrolase ... Retina S-antigen) / hippocampal genes commonly regulated by fluoxetine and bupropion (list: Transferrin ... Carbonic anhydrase 2) / hippocampal genes commonly regulated by fluoxetine and desipramine (list: Glutathione peroxidase 1 ... Insulin like growth factor II, Somatostatin): i.p., four weeks, vs saline; for hippocampal genes commonly regulated by desipramine and bupropion (list: NG,NG dimethylarginine dimethylaminohydrolase ... Retina S-antigen) / hippocampal genes commonly regulated by fluoxetine and desipramine (list: Glutathione peroxidase 1 ... Insulin like growth factor II, Somatostatin): >20% fold change, p<0.05; for hippocampal genes commonly regulated by fluoxetine and bupropion (list: Transferrin ... Carbonic anhydrase 2): fluoxetine 10 mg/kg/d, selected results confirmed by real time RT-PCR; for hippocampal genes commonly regulated by fluoxetine and desipramine (list: Glutathione peroxidase 1 ... Insulin like growth factor II, Somatostatin): 10 mg/kg/d each
Description: as §1, §2, §3, §4
Using a criteria of greater than 20% fold change (90% lower bound confidence limit) and a t-test value yielding a probability of p<0.05, we found 28 genes that were regulated by all three antidepressants compared to saline treatment. Nine of these genes were ESTs.
Regulation of these genes can conveniently be confirmed by Real Time RT-PCR, and in situ hybridization. Regulation of two of the genes has been confirmed by RT-PCR.

[3] = rats treated with bupropion and/or fluoxetine
[4] = rats treated with desipramine and/or bupropion
[5] = rats treated with fluoxetine, bupropion and/or desipramine, i.p. twice daily for four weeks
[6] = rats treated with fluoxetine and/or desipramine

Row | SMILES | number of hypothalamic genes with altered mRNA levels [1] | hippocampal genes commonly regulated by desipramine and bupropion (list: NG,NG dimethylarginine dimethylaminohydrolase ... Retina S-antigen) [2] | hippocampal genes commonly regulated by fluoxetine and bupropion (list: Transferrin ... Carbonic anhydrase 2) [2] | number of hippocampal genes with altered mRNA levels [2, 3] | number of hippocampal genes with altered mRNA levels [2, 4] | number of hippocampal genes with altered mRNA levels [2, 5] | hippocampal genes commonly regulated by fluoxetine and desipramine (list: Glutathione peroxidase 1 ... Insulin like growth factor II, Somatostatin) [2] | number of hippocampal genes with altered mRNA levels [2, 6]
1 | CC(NC(C)(C)C)C(=O)c1cccc(Cl)c1 (stereo not drawn) [bupropion] | 3 | commonly regulated | commonly regulated | 11 | 46 | 18 |  | 
2 | CNCCCN1c2ccccc2CCc2ccccc21 [desipramine] | 3 | commonly regulated |  |  | 46 | 18 | commonly regulated | 33
3 | CNCCC(Oc1ccc(C(F)(F)F)cc1)c1ccccc1 (stereo not drawn) [fluoxetine] | 3 |  | commonly regulated | 11 |  | 18 | commonly regulated | 33
